In brackets after ≈: the same amount, converted by molar mass. Where two headings read alike, the source gives them in different places. Where only a bound is given, the exact number is not on record here.

Format in all cases: cell-based
Assay [1] has as its system S. aureus UNT96, NRS710, MP-618 (USA100, Erythro > 8). In words: microbe, parasite or virus in culture. Conditions: Staphylococcus aureus.
The subject of the next assay is E. coli ATCC 25922. In words: MIC against E. coli ATCC 25922. To be noted: Escherichia coli, ATCC25922.
The next assay relates to K. pneumoniae ATCC 10031. In words: MIC against K. pneumoniae ATCC 10031. Conditions: Klebsiella pneumoniae, ATCC10031.
A further assay has as its system P. aeruginosa ATCC 27853. Briefly: MIC against P. aeruginosa ATCC 27853. To be noted: Pseudomonas aeruginosa, ATCC27853.
In the next assay the test system is S. aureus ATCC 29213. Briefly: MIC against S. aureus ATCC 29213. To be noted: Staphylococcus aureus.
For the next assay, the system named is E. faecalis UNT-047 VRE. In words: microbe, parasite or virus in culture. Conditions: Enterococcus faecalis.
Assay [2] relates to S. aureus MP-513 clinical cErm. Briefly: MIC against S. aureus MP-513 clinical cErm. Conditions: Staphylococcus aureus.
The test system of assay [3] is S. aureus MP-549 msr(a) USA 300. In words: MIC against S. aureus MP-549 msr(a) USA 300. Conditions: Staphylococcus aureus, USA300, S. aureus MP-549 msr(a) USA 300.
The test system of assay [4] is S. aureus UNT-120, MP-619, NR522 (USA 600, GISA). In words: microbe, parasite or virus in culture. To be noted: Staphylococcus aureus, USA600.
A further assay relates to S. pyogenes ATCC 19615. In words: MIC against S. pyogenes ATCC 19615. Conditions: Streptococcus pyogenes, ATCC19615.
The next assay has as its system S. aureus BAA 977 iErmA. In words: MIC against S. aureus BAA 977 iErmA. To be noted: Staphylococcus aureus, BAA977.
For assay [5], the system named is S. aureus UNT-146, MP-620, TP 506 (ermA). Briefly: microbe, parasite or virus in culture. To be noted: Staphylococcus aureus.
The next assay deals with E. coli MP-9 ΔTolC. Briefly: MIC against E. coli MP-9 ΔTolC. To be noted: Escherichia coli.
A further assay concerns E. faecalis ATCC 29212. In words: MIC against E. faecalis ATCC 29212. To be noted: Enterococcus faecalis, ATCC29212.
In assay [6] the test system is E. coli MMX TolC parent strain. Briefly: MIC against E. coli MMX TolC parent strain. Conditions: Escherichia coli.
A further assay concerns E. coli MMX 0121 ΔTolC. In words: MIC against E. coli MMX 0121 ΔTolC. Conditions: Escherichia coli.
Assay [7] concerns E. faecalis MMX 847 Macrolide-Resistant. Briefly: MIC against E. faecalis MMX 847 Macrolide-Resistant. To be noted: Enterococcus faecalis.
The subject of assay [8] is S. aureus Micromyx USA 300. In words: MIC against S. aureus Micromyx USA 300. To be noted: Staphylococcus aureus, USA300.
A further assay relates to B. fragilis ATCC 25285. Briefly: MIC against B. fragilis ATCC 25285. To be noted: Bacteroides fragilis, ATCC25285.
Assay [9] relates to S. pyogenes MMX 946 Macrolide-Resistant. In words: MIC against S. pyogenes MMX 946 Macrolide-Resistant. Conditions: Streptococcus pyogenes.
Assay [10] deals with S. pneumoniae MMX 3028 cErmB. In words: MIC against S. pneumoniae MMX 3028 cErmB. Conditions: Streptococcus pneumoniae, MMX3028CERMB.
The test system of the next assay is C. difficile BAA 1805. In words: MIC against C. difficile BAA 1805. To be noted: Clostridioides difficile, BAA1805.
The test system of assay [11] is S. pneumoniae MMX 3031 cMefA. Briefly: MIC against S. pneumoniae MMX 3031 cMefA. Conditions: Streptococcus pneumoniae, MMX3031CMEFA.
A further assay has as its system E. coli ATCC 15922. Briefly: MIC against E. coli ATCC 15922. Conditions: Escherichia coli, ATCC15922.
The test system of assay [12] is P. aeruginosa MMX Mex parent strain. Briefly: MIC against P. aeruginosa MMX Mex parent strain. Conditions: Pseudomonas aeruginosa.
For the next assay, the system named is S. aureus MMX 3035 cErmA. Briefly: MIC against S. aureus MMX 3035 cErmA. Conditions: Staphylococcus aureus, MMX3035CERMA.
In assay [13] the test system is P. aeruginosa MMX 3476 Δmex. In words: MIC against P. aeruginosa MMX 3476 Δmex. To be noted: Pseudomonas aeruginosa.
The next assay relates to S. pneumoniae ATCC 49619. In words: MIC against S. pneumoniae ATCC 49619. To be noted: Streptococcus pneumoniae, ATCC49619; S. pneumoniae ATCC 49619; read-out: MIC.
For assay [14], the system named is S. pyogenes UNT-014, MP-625 MacRes. In words: MIC against S. pyogenes UNT-014, MP-625 MacRes. To be noted: Streptococcus pyogenes.
For assay [15], the system named is S. pneumoniae UNT-039, MP-627, TP1517 (mefA). In words: MIC against S. pneumoniae UNT-039, MP-627, TP1517 (mefA). To be noted: Streptococcus pneumoniae.
A further assay concerns H. influenzae ATCC 49247. In words: MIC against H. influenzae ATCC 49247. To be noted: Haemophilus influenzae, ATCC49247.
[16] abbreviates: S. pyogenes ATCC 19615, read-out: MIC.

For `CSC1O[C@H]([C@H](NC(=O)[C@H]2NC[C@@H]3C[C@@H](O)[C@@H](O)CO[C@H]32)[C@H](C)Cl)C(O)[C@@H](O)[C@H]1O` (stereo partly shown) [FSA-501076], the MIC (in assay [1]; against E. coli ATCC 25922; in the assay with K. pneumoniae ATCC 10031; against P. aeruginosa ATCC 27853; in the assay on S. aureus ATCC 29213 (ATCC29213); with E. faecalis UNT-047 VRE) was over 64 µg/mL in each case. Also, the MIC (in assay [2]; in assay [3]; in [4]; against S. pyogenes ATCC 19615; with S. aureus BAA 977 iErmA; in assay [5]) was over 64 µg/mL throughout. The MIC with E. coli MP-9 ΔTolC and against E. faecalis ATCC 29212 was over 64 µg/mL each time.

In the case of `CSC1O[C@H]([C@H](NC(=O)[C@H]2NC[C@@H]3CC=CCO[C@H]32)[C@H](C)Sc2ccc(-c3cncnc3)cc2)C(O)[C@@H](O)[C@H]1O` (stereo partly shown) [FSA-27049], the MIC against P. aeruginosa ATCC 27853 is over 64 µg/mL; with S. aureus ATCC 29213 (ATCC29213, S. aureus ATCC 29213, read-out: MIC), 1 µg/mL (≈ 1.7 µM); in [6] it was over 64 µg/mL; against E. coli MMX 0121 ΔTolC it was 8 µg/mL (≈ 13.6 µM); in [7], over 64 µg/mL; in assay [8] (S. aureus Micromyx USA 300, read-out: MIC), 1 µg/mL (≈ 1.7 µM). Besides, the MIC against B. fragilis ATCC 25285 was over 64 µg/mL; in assay [2], over 64 µg/mL; in assay [9] (S. pyogenes MMX 946 Macrolide-Resistant (MacRes), read-out: MIC) it was 2 µg/mL (≈ 3.4 µM); in [10] (S. pneumoniae MMX 3028 cErmB, read-out: MIC), 39 µg/mL (≈ 66.2 µM); in the assay on C. difficile BAA 1805 (C. difficile BAA 1805, read-out: MIC), 1 µg/mL (≈ 1.7 µM); in assay [11], at most 0.06 µg/mL. In addition, the MIC against E. coli ATCC 15922 is over 64 µg/mL; in assay [12], over 64 µg/mL; in the assay with S. pyogenes ATCC 19615 (setting [16]) it was at most 0.06 µg/mL; with S. aureus MMX 3035 cErmA, over 64 µg/mL; with S. aureus BAA 977 iErmA it was 2 µg/mL (≈ 3.4 µM); in [13], over 64 µg/mL. In the assay with S. pneumoniae ATCC 49619, the MIC is at most 0.06 µg/mL.

`CSC1O[C@H]([C@H](NC(=O)[C@H]2NC[C@@H]3C[C@H]4OC(C)(C)O[C@H]4CO[C@H]32)[C@H](C)Cl)C(O)[C@@H](O)[C@H]1O` (stereo partly shown) [FSA-501099]: the MIC is over 64 µg/mL in assay [1]; 32 µg/mL (≈ 62.6 µM) in assay [14]; over 64 µg/mL with E. coli ATCC 25922; over 64 µg/mL against K. pneumoniae ATCC 10031; over 64 µg/mL against P. aeruginosa ATCC 27853; over 64 µg/mL in the assay with S. aureus ATCC 29213 (ATCC29213). Besides, the MIC in assay [15] was 2 µg/mL (≈ 3.91 µM); with E. faecalis UNT-047 VRE it was over 64 µg/mL; in assay [2] it was over 64 µg/mL; in assay [3] it was over 64 µg/mL; in assay [4], over 64 µg/mL; in the assay with S. aureus BAA 977 iErmA it was over 64 µg/mL. For the same molecule, the MIC in assay [5] was over 64 µg/mL; against E. coli MP-9 ΔTolC, over 64 µg/mL; in the assay on E. faecalis ATCC 29212 it was over 64 µg/mL; in the assay on S. pneumoniae ATCC 49619, 8 µg/mL (≈ 15.7 µM).

As to `Cc1ccc(S(=O)(=O)OCC2O[C@H]([C@H](NC(=O)[C@H]3NC[C@@H]4CC=CCO[C@H]43)[C@@H](C)O)C(O)[C@@H](O)[C@H]2O)cc1` (stereo partly shown) [FSA-211030], the MIC (with E. coli ATCC 25922; with P. aeruginosa ATCC 27853; against S. aureus ATCC 29213 (ATCC29213); against H. influenzae ATCC 49247; in assay [6]; against E. coli MMX 0121 ΔTolC) was over 64 µg/mL each time. In addition, the MIC (in assay [7]; in assay [8]; against B. fragilis ATCC 25285; in assay [9]; in assay [10]; in the assay with C. difficile BAA 1805) was over 64 µg/mL throughout. The MIC was over 64 µg/mL in [12]; 1 µg/mL (≈ 1.8 µM) in the assay with S. pyogenes ATCC 19615 (setting [16]); over 64 µg/mL against S. aureus MMX 3035 cErmA; over 64 µg/mL against S. aureus BAA 977 iErmA; over 64 µg/mL in the assay on E. faecalis ATCC 29212; over 64 µg/mL in assay [13].

(Values after patent publication US20220073554A1, “LINCOSAMIDE ANTIBIOTICS AND USES THEREOF” (President and Fellows of Harvard College, priority 2017, published 2022).)
